Results reported in PubChem BioAssay (NCI).
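Dose response: 5 concentrations. Exposure: 48 h. Format: 96-well plates. Endpoint: linear interpolation; highest concentration if not reached. The concentration for full growth arrest is given as TGI.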

How the values were obtained:
Assay in all cases: growth of human tumour cells (NCI), 48 h
786-0 renal = tested on: 786-0 renal
A498 renal = tested on: A498 renal
A549 NSCLC = tested on: A549 NSCLC
ACHN renal = tested on: ACHN renal
CAKI-1 renal = tested on: CAKI-1 renal
COLO 205 colon = tested on: COLO 205 colon
DU-145 prostate = tested on: DU-145 prostate
EKVX NSCLC = tested on: EKVX NSCLC
HCC-2998 colon = tested on: HCC-2998 colon
HCT-116 colon = tested on: HCT-116 colon
HCT-15 colon = tested on: HCT-15 colon
HL-60(TB) leukemia = tested on: HL-60(TB) leukemia
HOP-62 NSCLC = tested on: HOP-62 NSCLC
HOP-92 NSCLC = tested on: HOP-92 NSCLC
HS 578T breast = tested on: HS 578T breast
HT29 colon = tested on: HT29 colon
IGROV1 ovarian = tested on: IGROV1 ovarian
K-562 leukemia = tested on: K-562 leukemia
KM12 colon = tested on: KM12 colon
M14 melanoma = tested on: M14 melanoma
MALME-3M melanoma = tested on: MALME-3M melanoma
MDA-N = tested on: MDA-N
MOLT-4 leukemia = tested on: MOLT-4 leukemia
NCI-H23 lung = tested on: NCI-H23 lung
NCI-H460 lung = tested on: NCI-H460 lung
NCI/ADR-RES ovarian = tested on: NCI/ADR-RES ovarian
OVCAR-4 ovarian = tested on: OVCAR-4 ovarian
OVCAR-5 ovarian = tested on: OVCAR-5 ovarian
OVCAR-8 ovarian = tested on: OVCAR-8 ovarian
PC-3 prostate = tested on: PC-3 prostate
RPMI-8226 leukemia = tested on: RPMI-8226 leukemia
RXF 393 renal = tested on: RXF 393 renal
SF-268 CNS = tested on: SF-268 CNS
SF-295 CNS = tested on: SF-295 CNS
SK-MEL-28 melanoma = tested on: SK-MEL-28 melanoma
SK-MEL-5 melanoma = tested on: SK-MEL-5 melanoma
SK-OV-3 ovarian = tested on: SK-OV-3 ovarian
SNB-19 CNS = tested on: SNB-19 CNS
SNB-75 CNS = tested on: SNB-75 CNS
SR leukemia = tested on: SR leukemia
SW-620 colon = tested on: SW-620 colon
T-47D breast = tested on: T-47D breast
TK-10 renal = tested on: TK-10 renal
U251 CNS = tested on: U251 CNS
UACC-257 melanoma = tested on: UACC-257 melanoma
UO-31 renal = tested on: UO-31 renal

Measured: TGI

CCN1CCCC(C#N)(c2ccccc2)CC1 (stereo unspecified)
> 100 µM: all assays above
